Data from paper PMC12562379, “Facile Synthesis of N-vinylindoles via Knoevenagel Condensation: Molecular Features and Biological Activities” (International Journal of Molecular Sciences, 2025).
≈ marks a conversion by molar mass, not a printed value.

How the values were obtained:
AGS = experiment: MTT assay, cytotoxic activity; format: cell-based, human; details: Homo sapiens, 24 h, n = 12
Description: (§1) The human ovarian SKOV-3, gastric adenocarcinoma AGS, cervical HeLa cell lines and non-cancerous keratinocytes HaCaT were obtained from the American Type Culture Collection (ATCC, Manassas, VA, USA). The cell lines were cultured in McCoy’s Medium, Dulbecco’s Modified Eagle’s Medium/F12, and DMEM, respectively (Merck Millipore, Burlington, MA, USA). Penicillin (100 units/mL), streptomycin ([…]), and 10% (v/v) fetal bovine serum (FBS) were added to all the media. The cells were incubated at 37 °C and 5% CO2.
(§2) To estimate the cytotoxic activity of the obtained compounds 2a-i, MTT assay was used. The cells (5 × 10^3 cells/well) were treated with the compounds in a range of concentrations 1–150 µg/mL. […] After 24 h, MTT solution (0.5 mg/mL) was added to the cells. Formazan crystals were dissolved in DMSO and the absorbance was measured with a microtiter plate reader (Epoch, BioTek Instruments, Winooski, VT, USA).

HeLa = experiment: MTT assay, cytotoxic activity; format: cell-based, human; details: Homo sapiens, 24 h, n = 12
Description: as §1, §2

SKOV-3 = experiment: MTT assay, cytotoxic activity; format: cell-based, human; details: Homo sapiens, SK-OV-3; SKOV-3, MTT, 24 h, n = 12
Description: as §1, §2

HaCaT = experiment: MTT assay, cytotoxic activity on non-cancerous keratinocytes; format: cell-based; details: Homo sapiens, 24 h, n = 12
Description: as §1, §2

SKOV-3 cells = experiment: Cell cycle assay (Muse Cell Analyzer); format: cell-based, human; details: SKOV-3, 48 h
Description: The SKOV-3 cells (5 × 10^5 cells/well) were seeded and incubated with compound 2i at concentrations of 2, 5, 10, 15, 30, and 60 µg/mL for 48 h. After treatment, Muse Cell Cycle Assay Kit and Muse Cell Analyzer (Merck Millipore, Burlington, MA, USA) were used to analyze the stained cells, according to the manufacturer’s instruction. The results are shown as percentage of the cells in each phase of cell cycle: subG0, G0/G1, S, and G2/M. The experiment was repeated in two independent repeats (in three repetitions).

**Q.** How did the IC50 (AGS) turn out when `C(=C(\C1=NCCN1)n1ccc2ccccc21)/c1ccc2ccccc2c1` [Compound 2i, (Z)-1-[1-(4,5-dihydro-1H-imidazol-2-yl)-2-(naphthalen-2-yl)vinyl]-1H-indole] was run?
**A.** 5.68 ± 0.41 µg/mL (≈ 16.8 µM)

**Q.** And the IC50 (HeLa)?
**A.** 2.03 ± 0.05 µg/mL (≈ 6.02 µM)

**Q.** What about the IC50 (SKOV-3) of the same compound?
**A.** 2.45 ± 0.13 µg/mL (≈ 7.26 µM)

**Q.** What about the IC50 (HaCaT) of the same compound?
**A.** 3.02 ± 0.18 µg/mL (≈ 8.95 µM)

**Q.** And the “cells in subG0 phase” value (SKOV-3 cells; 2 µg/mL)?
**A.** 28.10 ± 4.49%

**Q.** And the “cells in subG0 phase” value (SKOV-3 cells; 5 µg/mL)?
**A.** 49.00 ± 0.85%

**Q.** And the “cells in subG0 phase” value (SKOV-3 cells; 10 µg/mL)?
**A.** 82.73 ± 1.33%

**Q.** And the “cells in subG0 phase” value (SKOV-3 cells; 15 µg/mL)?
**A.** 91.67 ± 0.57%

**Q.** And the “cells in subG0 phase” value (SKOV-3 cells; 30 µg/mL)?
**A.** 95.30 ± 1.67%

**Q.** What about the “cells in subG0 phase” value (SKOV-3 cells; 60 µg/mL) of the same compound?
**A.** 99.83 ± 0.15%

**Q.** And the cell cycle arrest (SKOV-3 cells; 2–60 µg/mL, all concentrations)?
**A.** strongly induced cell cycle arrest in subG0 phase
